The values that follow come from publication PMC11171218, “N-Benzylated 5-Hydroxybenzothiophene-2-carboxamides as Multi-Targeted Clk/Dyrk Inhibitors and Potential Anticancer Agents” (Cancers, 2024).

Data set [1] addresses Dyrk1A (Homo sapiens, UniProt Q13627). Briefly: Z'-LYTE kinase inhibition assay, Dyrk1A. To be noted: for IC50: ATP conc. equivalent to Km; for inhibition at 1 µM: read-out: Dyrk1A % Inh. At 1 µM. It is filed as biochemical. The source says:
(§1) 3. Experimental procedure for protein kinases and inhibition assays.
(§2) 3.1 The Z ́ -LYTE biochemical assay for screening and IC 50 determination for Clk1, Dyrk1A, Dyrk1B, Clk2 and Clk3 kinases.
(§3) The assay employs a fluorescence-based, coupled-enzyme format and is based on the differential sensitivity of phosphorylated and non-phosphorylated peptides to proteolytic cleavage. The peptide substrate is labeled with two fluorophores-one at each end-that make up a FRET pair. In the primary reaction, the kinase transfers the gamma-phosphate of ATP to a single tyrosine, serine, or threonine residue in a synthetic FRET-peptide. In the secondary reaction, a site-specific protease recognizes and cleaves non-phosphorylated FRET-peptides. Phosphorylation of FRET-peptides suppresses cleavage by the Development Reagent. Cleavage disrupts FRET between the donor (i.e., coumarin) and acceptor (i.e., fluorescein) fluorophores on the FRET-peptide, whereas uncleaved, phosphorylated FRET-peptides maintain FRET. A ratiometric method, which calculates the ratio (the Emission Ratio) of donor emission to acceptor emission after excitation of the donor fluorophore at 400 nm, is used to quantitate reaction progress. Both cleaved and uncleaved FRET-peptides contribute to the fluorescence signals and therefore to the Emission Ratio. The extent of phosphorylation of the FRET-peptide can be calculated from the Emission Ratio. The Emission Ratio will remain low if the FRET-peptide is phosphorylated (i.e., no kinase inhibition) and will be high if the FRET-peptide is non-phosphorylated (i.e., kinase inhibition).
(§4) The IC 50 values were determined for compounds displaying significant % inhibition in the screening step. IC 50 determination was done through testing at a range of concentrations with two […]
(§5) two independent experiments. […]
3.1.2 Dyrk1A kinase assay specific conditions:
The 2x Dyrk1A / Ser/Thr 18 mixture is prepared in 50 mM HEPES pH 7.5, 0.01% BRIJ-35, 10 […]
2 µM Ser/Thr 18 in 50 mM HEPES pH 7.5, 0.01% BRIJ-35, 10 mM MgCl 2, 1 mM EGTA. […]
(§6) Development Reagent A is added. […]
(§7) MgCl2, 1 mM EGTA, 0.02% NaN3. […]

Data set [2] deals with Clk1 (Homo sapiens, UniProt P49759). Briefly: Z'-LYTE kinase inhibition assay, Clk1. The following applies: for IC50: ATP conc. equivalent to Km; for inhibition at 1 µM: read-out: Clk1 % Inh. At 1 µM. In kind it is biochemical.
Sequence of Clk1 (P49759 whole entry): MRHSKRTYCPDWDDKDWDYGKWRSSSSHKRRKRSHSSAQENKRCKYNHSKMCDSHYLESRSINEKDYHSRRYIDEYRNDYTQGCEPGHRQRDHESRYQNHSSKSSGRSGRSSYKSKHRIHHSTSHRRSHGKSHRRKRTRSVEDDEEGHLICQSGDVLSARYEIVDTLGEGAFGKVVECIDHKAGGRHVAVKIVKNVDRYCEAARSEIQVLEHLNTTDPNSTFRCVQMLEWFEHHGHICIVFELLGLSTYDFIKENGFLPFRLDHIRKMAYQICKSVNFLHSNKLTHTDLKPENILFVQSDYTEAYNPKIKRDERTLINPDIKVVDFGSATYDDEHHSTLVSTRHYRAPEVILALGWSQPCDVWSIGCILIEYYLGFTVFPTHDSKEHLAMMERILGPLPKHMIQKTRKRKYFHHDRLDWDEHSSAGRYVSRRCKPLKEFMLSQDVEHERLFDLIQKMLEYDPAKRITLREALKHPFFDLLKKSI
From the text: as §1, §2, §3, §4
two independent experiments.
3.1.1 Clk1 kinase assay specific conditions:
The 2x Clk1 / Ser/Thr 09 mixture is prepared in 50 mM HEPES pH 7.5, 0.01% BRIJ-35, 10 mM MgCl 2, 1 mM EGTA. The final 10 μL kinase reaction consists of 30 - 120 ng Clk1 and 2 μM Ser/Thr 09 in 50 mM HEPES pH 7.5, 0.01% BRIJ-35, 10 mM MgCl 2, 1 mM EGTA. After the 1 h

Data set [3] addresses Clk3 (Homo sapiens, UniProt P49761). Briefly: Z'-LYTE kinase inhibition assay, Clk3. It is filed as biochemical. To be noted: 1 µM compound; screening by Thermo Fisher Scientific.
From the text: as §1, §2, §3, §4, §5, §6
3.1.5 Clk3 kinase assay specific conditions:
The 2X Clk3 / Ser/Thr 18 mixture is prepared in 50 mM Tris pH 8.5, 0.01% BRIJ-35, 10 mM […]
as §7
of Development Reagent A is added.

Data set [4] has as its system T24 cells. Briefly: CCK-8 cell viability, T24. It is filed as cell-based. To be noted: Homo sapiens, T-24, 72 h; for inhibition at 20 µM: CCK-8, mean ± S.E.M. (n = 3), read-out: T24 % Inh. at μM; for IC50: CCK-8, 50% inhibition of viability. The method, then: (§8) All cells were purchased from Bioresource Collection and Research Center (Hsinchu, Taiwan) and cultured in corresponding media supplemented with 10% fetal bovine serum, 1 × Antibiotic-Antimycotic at 37 °C in a humidified incubator with 5% CO2. […] T24 cells were cultured in McCoy’s 5a media. IEC-6 cells were cultured in DMEM media supplemented with 5% fetal bovine serum, 1 × Antibiotic–Antimycotic, and 0.1 unit/mL insulin.
(§9) Cells were incubated with the Cell Counting Kit-8 (CCK-8) reagent (TargetMol, Boston, MA, USA) at 37 °C for 2 h. The cell viability was determined by spectrophotometer at 450 nm.

Data set [5] has as its system U87 cells. Briefly: CCK-8 cell viability, U87. To be noted: Homo sapiens, U-87 MG, 72 h; for inhibition at 20 µM: CCK-8, mean ± S.E.M. (n = 3), read-out: U87 % Inh. at μM. In kind it is cell-based. The protocol:
as §8, §9

Data set [6] concerns T24 cells. As to the kind of experiment: Cell cycle assay (PI staining, flow cytometry). It is filed as cell-based, human. To be noted: 30–50 µM, 24 h. The protocol: Cells were fixed with 75% ethanol and then stained with 50 μg/mL propidium iodide (PI; Cat# P4170, Sigma-Aldrich, St. Louis, MO, USA) at room temperature for 1 h. Cell cycle was analyzed by flow cytometry.
Figure 2 Analysis of cell cycle progression upon treatment with compounds 12 and 17. T24 cells were treated with DMSO (0.1%), 12 (30–50 µM), or 17 (30–50 µM) for 24 h. Cell cycle was examined by propidium iodide (PI) staining and flow cytometry. All data are expressed as the mean ± S.E.M. (n = 3).

In data set [7] the test system is Bax. Briefly: Western blot, Bax in T24 cells. In kind it is cell-based, human. To be noted: 10–50 μM, 24 h. The source says: Cell lysates were sequentially suspended in commercial RIPA Buffer (pH 7.4; Cat# RB4475, Bio Basic, Markham, Ontario, Canada) containing Protease Inhibitor Cocktail and PhosSTOP (Merck, Darmstadt, Germany), boiled in sodium dodecyl sulphate (SDS) sample buffer, separated by SDS-polyacrylamide gel electrophoresis (PAGE), and electrophoresed onto a PVDF membrane. Antibodies used in this study were Bcl-2 (Cat#A19693, RRID: AB_2862738) and Bax (Cat# A0207, RRID: AB_2757021) from ABclonal (Boston, MA, USA); cleaved caspase-3 (Cat# 9662, RRID: AB_331439) and GAPDH (Cat# 8884, RRID:AB_11129865) from Cell Signaling Technology (Beverly, MA, USA). The labeled signals were determined using HRP-conjugated secondary antibodies and the Bio-rad ChemiDoc™ MP Imaging System (Berkeley, CA, USA).
Figure 4 Examining the effect of 12 and 17 on proapoptotic and antiapoptotic pathways. T24 cells were treated with DMSO (0.1%), 12 (30–50 µM), or 17 (30–50 µM) for 24 h. Expression levels of cleaved caspase-3, Bax, Bcl-2, and GAPDH were analyzed by Western blot by corresponding antibodies. The quantitation of the cleaved caspase-3/GAPDH, Bax/GAPDH, and Bcl-2/GAPDH ratio are shown. All data are expressed as the mean ± S.E.M. (n = 3). * p < 0.05, ** p < 0.01, *** p < 0.001 compared with the DMSO group.

Usually IC50 stands for the concentration that inhibits the measured activity by half. What is called melting point is the temperature of the solid-liquid transition.

Sequence of Clk3 (P49761 whole entry): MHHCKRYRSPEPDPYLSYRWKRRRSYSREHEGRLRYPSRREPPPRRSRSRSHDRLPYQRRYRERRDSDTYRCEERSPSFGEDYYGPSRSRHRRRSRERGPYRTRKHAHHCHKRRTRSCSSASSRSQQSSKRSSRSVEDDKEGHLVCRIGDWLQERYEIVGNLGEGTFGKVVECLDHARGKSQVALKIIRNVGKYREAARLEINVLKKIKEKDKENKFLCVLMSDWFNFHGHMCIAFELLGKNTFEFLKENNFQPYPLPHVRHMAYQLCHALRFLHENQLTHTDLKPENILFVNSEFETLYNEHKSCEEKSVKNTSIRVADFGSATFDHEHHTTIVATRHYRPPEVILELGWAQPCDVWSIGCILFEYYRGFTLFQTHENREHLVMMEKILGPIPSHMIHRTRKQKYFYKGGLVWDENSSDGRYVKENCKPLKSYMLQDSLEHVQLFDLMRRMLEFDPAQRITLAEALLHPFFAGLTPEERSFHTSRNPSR

In turn, `O=C(NCc1cccc(Cl)c1)c1cc2cc(O)ccc2s1` [Compound 3, N-(3-Chlorobenzyl)-5-hydroxybenzo[b]thiophene-2-carboxamide] showed a melting point of 211.2 to 212.3 °C. Also, in data set [1], the IC50 was 0.751 µM and the inhibition at 1 µM came to 60%. In data set [2], the half-maximal inhibitory concentration (IC50) stood at 0.257 µM and the inhibition at 1 µM stood at 79%. The compound also showed an inhibition at 1 µM in data set [3] of 22%. Further, in data set [4], the inhibition at 20 µM was 68.6 ± 3.95% and the IC50 is 14 µM. The inhibition at 20 µM in data set [5] is 32.2 ± 4.76%.

In turn, `O=C(NCc1cccc(F)c1)c1cc2cc(O)ccc2s1` [Compound 6, N-(3-Fluorobenzyl)-5-hydroxybenzo[b]thiophene-2-carboxamide] gave a melting point of 176.7 to 177.7 °C. For the same compound, in data set [1], the 50% inhibitory concentration (IC50) was 0.666 µM and the inhibition at 1 µM amounted to 60%. Moreover, in data set [2], the IC50 stood at 0.41 µM and the inhibition at 1 µM was 72%. In data set [3], this compound registered an inhibition at 1 µM of 27%. In addition, in data set [4], the inhibition at 20 µM came out at 49.3 ± 6.04%. The inhibition at 20 µM in data set [5] stood at 21 ± 5.07%.

In the case of `COc1ccccc1CNC(=O)c1cc2cc(O)ccc2s1` [Compound 11, 5-Hydroxy-N-(2-methoxybenzyl)benzo[b]thiophene-2-carboxamide], the melting point lay in the range of 128.5 to 130.7 °C. Besides, in data set [1], the IC50 came to 0.565 µM and the inhibition at 1 µM was 64%. Also, in data set [2], the IC50 came out at 0.725 µM and the inhibition at 1 µM turned out to be 60%. In data set [3], this compound had an inhibition at 1 µM of 24%. In addition, in data set [4], the inhibition at 20 µM stood at 55.3 ± 3.3%. For the same compound, in data set [5], the inhibition at 20 µM stood at 18.1 ± 0.81%.

In the case of `COc1cccc(CNC(=O)c2cc3cc(O)ccc3s2)c1` [Compound 12, 5-Hydroxy-N-(3-methoxybenzyl)benzo[b]thiophene-2-carboxamide], the half-maximal inhibitory concentration (IC50) was 0.536 µM in data set [1]; 0.153 µM in data set [2]; 6 µM in data set [4]; 16.5 µM in data set [5] (CCK-8, 50% inhibition of viability). Further, the values for the inhibition at 1 µM in data set [1], in data set [2] and in data set [3] were 65%, 86% and 26%, respectively. Further, the figures for the inhibition at 20 µM in data set [4] and in data set [5] were 100% and 60.1 ± 6.16%, respectively. Also, the “Effect on cell cycle progression” value in data set [6] is reported as “much weaker than those of compound 17”. The “Level of Bax” value in data set [7] is “increased the proapoptotic levels of cleaved caspase-3 and Bax”.

Consider `O=C(NCc1cc(F)cc(F)c1)c1cc2cc(O)ccc2s1` [Compound 17, N-(3,5-Difluorobenzyl)-5-hydroxybenzo[b]thiophene-2-carboxamide], for which the IC50 is 0.495 µM in data set [1], 0.168 µM in data set [2] and 14.9 µM in data set [4]. The inhibition at 1 µM in data set [1] came out at 67%; in data set [2], 85%; in data set [3], 26%. Further, in data set [2] (ratio of IC50 vs compound 1), the “Improvement in inhibitory activity against Clk1 compared to compound 1” value turned out to be 4 fold. In addition, the inhibition at 20 µM in data set [4] is 59.9 ± 2.05%; in data set [5] it was 47.3 ± 5.65%. In addition, the “Effect on cell cycle progression” value in data set [6] was “retain the cells in the G2/M phase”. Besides, the “Level of Bax” value in data set [7] was “increased the proapoptotic levels of cleaved caspase-3 and Bax”.
